Data reported in PubChem BioAssay AID1845196 (Molecular Pharmacology Branch, DTP, NCI, 2023).
Where “and” joins values, the source holds several entries; their conditions need not be identical. Equal entries are not always repeated.

Tested on: 292921-168-R tumor spheroid viability
Assay: Anticancer human tumor 292921-168-R patient-derived pancreatic carcinoma cell line growth inhibition
Details: spheroids with HUVEC and MSC; for viability, T/C: stronger effect = lower value; active = viability on the fitted dose curve at most 10% of control; inactive = the rest
Outline: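 Complex tumor spheroids combined malignant cells with endothelial cells and mesenchymal stem cells. DNA-damaging drugs and DNA repair inhibitors were tested alone and in combination, at half-log dilutions down from clinical Cmax (top 10 microM if Cmax unknown), 0.25% DMSO final.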

[1] = curve of first compound, second compound 1 µM
[2] = curve of first compound, second compound 3.16 µM
[3] = curve of first compound, second compound 10 µM
[4] = curve of first compound, second compound 31.6 µM
[5] = curve of first compound, second compound 100 µM
[6] = second compound 1 µM, first compound 0.0316 µM
[7] = second compound 1 µM, first compound 0.1 µM
[8] = second compound 1 µM, first compound 0.316 µM
[9] = second compound 1 µM, first compound 1 µM
[10] = second compound 1 µM, first compound 3.16 µM
[11] = second compound 1 µM, first compound 10 µM
[12] = second compound 3.16 µM, first compound 0.0316 µM
[13] = second compound 3.16 µM, first compound 0.1 µM
[14] = second compound 3.16 µM, first compound 0.316 µM
[15] = second compound 3.16 µM, first compound 1 µM
[16] = second compound 3.16 µM, first compound 3.16 µM
[17] = second compound 3.16 µM, first compound 10 µM
[18] = second compound 10 µM, first compound 0.0316 µM
[19] = second compound 10 µM, first compound 0.1 µM
[20] = second compound 10 µM, first compound 0.316 µM
[21] = second compound 10 µM, first compound 1 µM
[22] = second compound 10 µM, first compound 3.16 µM
[23] = second compound 10 µM, first compound 10 µM
[24] = second compound 31.6 µM, first compound 0.0316 µM
[25] = second compound 31.6 µM, first compound 0.1 µM
[26] = second compound 31.6 µM, first compound 0.316 µM
[27] = second compound 31.6 µM, first compound 1 µM
[28] = second compound 31.6 µM, first compound 3.16 µM
[29] = second compound 31.6 µM, first compound 10 µM
[30] = second compound 100 µM, first compound 0.0316 µM
[31] = second compound 100 µM, first compound 0.1 µM
[32] = second compound 100 µM, first compound 0.316 µM
[33] = second compound 100 µM, first compound 1 µM
[34] = second compound 100 µM, first compound 3.16 µM
[35] = second compound 100 µM, first compound 10 µM
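Note: spheroids exposed to compounds for 7 days.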

Cn1nnc2c(C(N)=O)ncn2c1=O
inactive: viability, T/C (compound 1 µM) 94.3% [middle of 10 runs] | viability, T/C (compound 3.16 µM) 95.5% [middle of 10 runs] | viability, T/C (compound 10 µM) 94.8% [middle of 10 runs] | viability, T/C (compound 31.6 µM) 90.8% [middle of 10 runs] | viability, T/C (compound 100 µM) 85.8% [middle of 10 runs]
> 100 µM: IC50 (compound alone, run of 10/17/2019)

CC1COCCN1c1cc(-c2ccnn2C)c2ccnc(-c3ccn[nH]3)c2n1 (configuration not stated)
< 0.0316 µM: IC50 (curve of compound)
inactive: viability, T/C (compound 0.0316 µM) 26.3% and 36.1% and 39.6% | viability, T/C (compound 0.1 µM) 14.2% and 20.1% and 22% | viability, T/C (compound 0.316 µM) 11.9% and 13.8% and 14.4% | viability, T/C (compound 1 µM) 13.8% and 13.7% (2×) | viability, T/C (compound 3.16 µM) 14.8% and 14.5% and 14.9% | viability, T/C (compound 10 µM) 16.8% and 16% and 16.7%

CNCc1ccc(-c2cc(-c3nc(-c4ccc(S(=O)(=O)C(C)C)cc4)cnc3N)on2)cc1
0.307 µM and 0.226 µM and 0.236 µM: IC50 (curve of compound)
inactive: viability, T/C (compound 0.00949 µM) 101% and 106% and 104% | viability, T/C (compound 0.03 µM) 101% and 94.1% and 95.1% | viability, T/C (compound 0.0949 µM) 79.2% and 80% and 91.3% | viability, T/C (compound 0.3 µM) 49.7% and 37.8% and 38.7% | viability, T/C (compound 0.949 µM) 26.5% and 25.3% and 20.8% | viability, T/C (compound 3 µM) 11.9% (2×) and 13.2%

COc1cc(C)[nH]c(=O)c1CN1CCc2c(Cl)cc(C(OC)C3COC3)c(Cl)c2C1=O (configuration not stated) + CC[C@@]1(O)C(=O)OCc2c1cc1n(c2=O)Cc2cc3c(CN(C)C)c(O)ccc3nc2-1
inactive: viability, T/C (second compound 0.003 µM, first compound 0.0316 µM) 108% | viability, T/C (second compound 0.003 µM, first compound 0.1 µM) 102% | viability, T/C (second compound 0.003 µM, first compound 0.316 µM) 85% | viability, T/C (second compound 0.003 µM, first compound 1 µM) 90.7% | viability, T/C (second compound 0.003 µM, first compound 3.16 µM) 88.7% | viability, T/C (second compound 0.003 µM, first compound 10 µM) 82.8% | viability, T/C (second compound 0.00949 µM, first compound 0.0316 µM) 92.6% | viability, T/C (second compound 0.00949 µM, first compound 0.1 µM) 94.1% | viability, T/C (second compound 0.00949 µM, first compound 0.316 µM) 71.3% | viability, T/C (second compound 0.00949 µM, first compound 1 µM) 71.5% | viability, T/C (second compound 0.00949 µM, first compound 3.16 µM) 81.3% | viability, T/C (second compound 0.00949 µM, first compound 10 µM) 63.3% | viability, T/C (second compound 0.03 µM, first compound 0.0316 µM) 50.6% | viability, T/C (second compound 0.03 µM, first compound 0.1 µM) 59.1% | viability, T/C (second compound 0.03 µM, first compound 0.316 µM) 53.4% | viability, T/C (second compound 0.03 µM, first compound 1 µM) 39.2% | viability, T/C (second compound 0.03 µM, first compound 3.16 µM) 40.2% | viability, T/C (second compound 0.03 µM, first compound 10 µM) 19.8% | viability, T/C (second compound 0.0949 µM, first compound 0.0316 µM) 13.1% | viability, T/C (second compound 0.0949 µM, first compound 0.1 µM) 15.6% | viability, T/C (second compound 0.0949 µM, first compound 0.316 µM) 12.9% | viability, T/C (second compound 0.0949 µM, first compound 1 µM) 9.42%
0.394 µM: IC50 (curve of first compound, second compound 0.03 µM)
active: viability, T/C (second compound 0.0949 µM, first compound 3.16 µM) 10.1% | viability, T/C (second compound 0.0949 µM, first compound 10 µM) 7.35% | viability, T/C (second compound 0.3 µM, first compound 0.0316 µM) 4.43% | viability, T/C (second compound 0.3 µM, first compound 0.1 µM) 4.26% | viability, T/C (second compound 0.3 µM, first compound 0.316 µM) 3.82% | viability, T/C (second compound 0.3 µM, first compound 1 µM) 2.93% | viability, T/C (second compound 0.3 µM, first compound 3.16 µM) 3.15% | viability, T/C (second compound 0.3 µM, first compound 10 µM) 3.34%
< 0.0316 µM: IC50 (curve of first compound, second compound 0.0949 µM) | IC50 (curve of first compound, second compound 0.3 µM)
> 10 µM: IC50 (curve of first compound, second compound 0.003 µM) | IC50 (curve of first compound, second compound 0.00949 µM)

[2H]c1nc(C)nc([2H])c1-c1cc(NC[C@@H](C)c2cccc3c(C(=O)NC)ccnc23)ncn1 + Cn1nnc2c(C(N)=O)ncn2c1=O
inactive: viability, T/C [6] 92.5% | viability, T/C [7] 99.7% | viability, T/C [8] 93.5% | viability, T/C [9] 76.6% | viability, T/C [10] 91.5% | viability, T/C [11] 71.8% | viability, T/C [12] 91% | viability, T/C [13] 91.5% | viability, T/C [14] 90.6% | viability, T/C [15] 93.7% | viability, T/C [16] 88.7% | viability, T/C [17] 77.4% | viability, T/C [18] 89.2% | viability, T/C [19] 86.4% | viability, T/C [20] 87.3% | viability, T/C [21] 93.7% | viability, T/C [22] 87.4% | viability, T/C [23] 79.6% | viability, T/C [24] 86.4% | viability, T/C [25] 87.1% | viability, T/C [26] 86.9% | viability, T/C [27] 86.1% | viability, T/C [28] 89.4% | viability, T/C [29] 75.4% | viability, T/C [30] 81.4% | viability, T/C [31] 81.5% | viability, T/C [32] 84.1% | viability, T/C [33] 81.2% | viability, T/C [34] 79.1% | viability, T/C [35] 70.6%
> 10 µM: IC50 [1] | IC50 [2] | IC50 [3] | IC50 [4] | IC50 [5]

COc1ccc([C@@H](O)c2cc(-c3ncnc4cc(N5CCOCC5)ccc34)c(F)cc2Cl)nn1 + Cn1nnc2c(C(N)=O)ncn2c1=O
1.23 µM: IC50 [1]
1.14 µM: IC50 [4]
1.47 µM: IC50 [2]
inactive: viability, T/C [6] 96.4% | viability, T/C [7] 91.1% | viability, T/C [8] 70.9% | viability, T/C [9] 55.5% | viability, T/C [10] 32.5% | viability, T/C [11] 17.9% | viability, T/C [12] 101% | viability, T/C [13] 95.5% | viability, T/C [14] 82.2% | viability, T/C [15] 60.1% | viability, T/C [16] 31.6% | viability, T/C [17] 19% | viability, T/C [18] 97.5% | viability, T/C [19] 91.6% | viability, T/C [20] 84.9% | viability, T/C [21] 51% | viability, T/C [22] 35.5% | viability, T/C [23] 18.2% | viability, T/C [24] 95.5% | viability, T/C [25] 92.5% | viability, T/C [26] 81.5% | viability, T/C [27] 51.2% | viability, T/C [28] 30.4% | viability, T/C [29] 18.6% | viability, T/C [30] 93% | viability, T/C [31] 88.5% | viability, T/C [32] 77.7% | viability, T/C [33] 45% | viability, T/C [34] 30.4% | viability, T/C [35] 18.9%
1.29 µM: IC50 [3]
0.899 µM: IC50 [5]

Cc1sc2c(c1C)C(c1ccc(Cl)cc1)=NC(CC(=O)Nc1ccc(O)cc1)c1nnc(C)n1-2 (configuration not stated)
2.95 µM and 1.85 µM and > 3 µM: IC50 (curve of compound)
inactive: viability, T/C (compound 0.00949 µM) 119% (2×) and 110% | viability, T/C (compound 0.03 µM) 124% and 90% and 120% | viability, T/C (compound 0.0949 µM) 132% and 104% and 113% | viability, T/C (compound 0.3 µM) 114% and 102% and 124% | viability, T/C (compound 0.949 µM) 92.9% and 71.4% and 81.5% | viability, T/C (compound 3 µM) 49.3% and 34.5% and 57.9%
